According to publication PMC5522529, “Mechanisms of Paradoxical Activation of AMPK by the Kinase Inhibitors SU6656 and Sorafenib” (Cell Chemical Biology, 2017):

How the values were obtained:
[1] = molecular target: T1, endogenous full-length α1 complexes (Homo sapiens, UniProt Q13131); experiment: Activity of endogenous full-length α1 complexes in HEK293 cells; assay type: cell-based; details: 1 hr
T1 construct: endogenous in cells
From the text: (§1) We next expressed an FLAG-tagged α1 kinase domain (α1-KD, residues 1–312) by transient transfection in HEK293 cells, treated the cells with various AMPK activators, and then assayed both the expressed α1-KD (precipitated using anti-FLAG) and endogenous full-length α1 complexes (precipitated using anti-α1 antibodies recognizing an epitope outside the α1-KD). […] This was also observed with A23187, as expected since this ionophore increases intracellular Ca^2+ and activates the alternate upstream kinase CaMKK2.
(§2) The α1-KD was precipitated using anti-FLAG and endogenous AMPK complexes using anti-α1 antibody, and activity determined. Results (mean ± SD, n = 2) are expressed relative to activities in DMSO controls. (B) Western blots (n = 2) using the indicated antibodies; samples from experiment in (A). (C) DNAs encoding FLAG-tagged AMPK-α1 (WT or AT mutant) were expressed by transient transfection in HEK293 cells, the cells treated with increasing concentrations of SU6656 for 1 hr, AMPK complexes precipitated with anti-FLAG, and activity measured. Results (mean ± SD, n = 3) are expressed relative to the DMSO control. […] Results (mean ± SD, n = 3) are expressed relative to the DMSO control. **p < 0.01, ***p < 0.001, ****p < 0.0001, ^†††p < 0.001; ns, not significant.

[2] = molecular target: T2, AMPK-α1 AT mutant (Homo sapiens, UniProt Q13131, A167T); experiment: AMPK activity of FLAG-tagged AMPK-α1 AT mutant expressed in HEK293 cells; assay type: cell-based; details: AT mutant FLAG-α1, 1 hr
T2 construct: we expressed FLAG-tagged full-length AMPK-α1 either as the WT or the AT mutant; expressed in transfected cells; host or cells: HEK293 (transient transfection)
From the text: as §2
To confirm that it acted by binding at the catalytic site, we expressed FLAG-tagged full-length AMPK-α1 either as the WT or the AT mutant.

[3] = molecular target: T3, AMPK-α1 (WT) (Homo sapiens, UniProt Q13131); experiment: AMPK activity of FLAG-tagged AMPK-α1 (WT) expressed in HEK293 cells; assay type: cell-based; details: 1 hr; for AMPK activity: WT FLAG-α1 (comparison with AT mutant)
T3 construct: we expressed FLAG-tagged full-length AMPK-α1 either as the WT or the AT mutant; expressed in transfected cells; host or cells: HEK293
From the text: (§3) (B) Western blotting of the same preparations as in (A). […] (D) Allosteric activation of WT and mutant α1β1γ1 complexes by MT 63-78, curve fitting as for (C). […] (E) Allosteric activation of WT and mutant α1β1γ1 complexes by AMP. Data were fitted to the equation for activation/inactivation by AMP ([Gowans et al., 2013]). […] (F) Activation of WT and AA mutant by various AMPK activators in HEK293 cells. […] FLAG-tagged complexes were isolated by immunoprecipitation and AMPK activity determined (mean ± SEM, n = 2).
(§4) We next expressed the FLAG-tagged WT or AA mutant of AMPK-α1 by transient transfection in HEK293 cells, treated with various agents, and measured AMPK activity in anti-FLAG immunoprecipitates. In Figure 4F, the results are expressed as absolute activities and are accompanied by blots showing Thr172 phosphorylation.
The α1-KD was precipitated using anti-FLAG and endogenous AMPK complexes using anti-α1 antibody, and activity determined. […] (B) Western blots (n = 2) using the indicated antibodies; samples from experiment in (A). (C) DNAs encoding FLAG-tagged AMPK-α1 (WT or AT mutant) were expressed by transient transfection in HEK293 cells, the cells treated with increasing concentrations of SU6656 for 1 hr, AMPK complexes precipitated with anti-FLAG, and activity measured.

[4] = molecular target: T4, human AMPK-α2 Y436F mutant (Homo sapiens, UniProt P54646, Y436F); experiment: AMPK activity of FLAG-tagged Y436F AMPK-α2 expressed in HEK293 cells; assay type: cell-based; details: SU6656 100 μM, phenformin 10 mM, A23187 10 μM, 1 hr
T4 construct: expressed in transfected cells; host or cells: HEK293 (transient transfection)
Procedure: (§5) Top: AMPK activity (mean ± SEM, n = 4); bottom: western blots showing phosphorylation of Thr172 on AMPK, and of ERK1/2, in cells treated with DMSO (control), SU6656 (100 μM), or PP2 (100 nM) (n = 2). (B) As (A), but in SYF cells. (C) HeLa cells were transfected with DNAs encoding GFP alone, or GFP fused to WT, Y261F/Y365F (FF), or Y36F/Y261F/Y365F (FFF) mutants of LKB1; cells were treated with increasing concentrations of SU6656 for 1 hr and AMPK activity determined (mean ± SEM, n = 4). See also Figure S1. (D) HEK293 cells were transfected with DNAs encoding FLAG-tagged AMPK-α2 with or without a Y436F mutation. Cells were incubated with DMSO (control), 100 μM SU6656, 10 mM phenformin, or 10 μM A23187 for 1 hr; AMPK complexes were immunoprecipitated using anti-FLAG antibody and assayed. The top panels show kinase activities (mean ± SD, n = 3); the bottom panels show blots from the same experiment (n = 2). In all panels, asterisks indicate significant differences from DMSO controls; in (D), there were no significant differences between the WT and Y463F mutant. **p < 0.01, ****p < 0.0001.

[5] = molecular target: T5, α1 kinase domain (α1-KD, residues 1–312) (Homo sapiens, UniProt Q13131); experiment: Activity of FLAG-tagged α1 kinase domain expressed in HEK293 cells; assay type: cell-based; details: 1 hr
T5 construct: amplifying residues 1-312 with an N-terminal FLAG-tag; expressed in transfected cells; host or cells: HEK293 (transient transfection, pcDNA5 FRT)
From the text: as §1, §2
A plasmid encoding the AMPK-α2 kinase domain (α2-KD) was made by amplifying residues 1-310 with 5' BamH1 and 3' Xho1 sites, the resulting PCR product was cloned into pGEX6P2. Point mutations were generated using the Quikchange II site-directed mutagenesis kit (Stratagene) and confirmed by DNA sequencing.

[6] = molecular target: human AMPK-α2 (WT) (Homo sapiens, UniProt P54646); experiment: AMPK activity of FLAG-tagged WT AMPK-α2 expressed in HEK293 cells; assay type: cell-based; details: SU6656 100 μM, phenformin 10 mM, A23187 10 μM, 1 hr
Procedure: as §5

[7] = molecular target: T6, AMPK-γ2 (WT) (Homo sapiens, UniProt Q9UGJ0); experiment: AMPK activity in HEK293 cells expressing WT AMPK-γ2; assay type: cell-based; details: 1 hr
T6 construct: expressed in transfected cells; host or cells: Flp-In T-REx 293 (HEK293), tetracycline-inducible
From the text: (§6) The next possibility was that, like several other AMPK-activating drugs, SU6656 inhibits mitochondrial ATP synthesis, and thus activates AMPK indirectly by increasing cellular AMP/ADP. To test this, we used cell lines inducibly expressing either WT AMPK-γ2 or an AMP/ADP-resistant R531G (RG) mutant ([Hawley et al., 2010]). […] There were no effects of SU6656 on cellular oxygen uptake, unlike berberine. Subsequent addition of the uncoupler 2,4-dinitrophenol (DNP), which prevents the respiratory chain from being limited by ADP supply, increased oxygen uptake identically in control and SU6656-treated cells but had no effect following berberine, as expected for a complex I inhibitor (Figure S2).
(§7) (B) WT or RG cells were treated as in (A) and nucleotides extracted for analysis (mean ± SD, n = 3). […] (E) (See also Figure S2) Time courses of cellular oxygen uptake before and after addition of the indicated concentrations of sorafenib (SO, μM), SU6656 (100 μM) or phenformin (PHEN, 10 mM) (mean ± SEM, n = 4). (F) Effect of various concentrations of sorafenib or phenformin (10 mM) on activation (top, mean ± SEM, n = 3) or phosphorylation (bottom) of AMPK in cells expressing wild-type AMPK-γ2 (WT) or the R531G mutant AMPK-γ2 (RG). In all panels, asterisks show significant differences from DMSO controls (ns, not significant). In (B), daggers (†) show significant differences between results in WT and RG cells. *p < 0.05, **p < 0.01, ***p < 0.001, ****p < 0.0001, ^††††p < 0.0001.
(§8) HEK-293 cells stably expressing tetracycline-inducible FLAG-tagged human AMPK-γ2, or an R531G mutant, were generated by introducing the corresponding DNAs into Flp-In™ T-REx™ 293 cells ([Auciello et al., 2014]). Expression of the FLAG-tagged constructs was induced for 48 hr using tetracycline (1 μg.ml^-1) prior to addition of compounds under test. Transient transfections were carried out 36-48 hr prior to experiments, using Fugene 6 according to manufacturers’ instructions.

[8] = molecular target: T7, human α1β1γ1 complex (Homo sapiens, UniProt P54619+Q13131+Q9Y478); experiment: Allosteric activation of bacterially expressed human α1β1γ1 complex, WT; assay type: biochemical
T7 construct: made in house; host or cells: Escherichia coli
From the text: (§9) We next tested whether SU6656 activates AMPK by binding at the ADaM site. […] We therefore expressed WT or single (K40A, K42A) or double (K40A/K42A, AA) α1 mutants in the context of the human α1β1γ1 complex (Figure 4A).
as §3
(§10) Endogenous AMPK was immunoprecipitated using the specified antibodies (for total AMPK, an equal mixture of anti-α1 and –α2 antibodies) and assayed at 200 μM ATP ([Hardie et al., 2000], [Towler et al., 2008]) using the AMARA peptide ([Dale et al., 1995]) as substrate, except for assays of allosteric activation by AMP (Figure 5A) where the SAMS peptide was used as substrate with 2 mM ATP ([Gowans et al., 2013]). The AMPK-related kinases SIK1, SIK2, SIK3, SNARK, MARK2/3 and MARK4 were immunoprecipitated and assayed as previously described ([Lizcano et al., 2004]) in lysates of Hela cells stably expressing LKB1 ([Fogarty et al., 2010]). LKB1 was assayed using the LKBtide peptide as substrate ([Sakamoto et al., 2004]).
(§11) Data were fitted to the specified equations by non-linear regression using GraphPad Prism 6 for Mac OSX.

[9] = molecular target: T8, human α1β1γ1 complex with K42A mutation in α1 (Homo sapiens, UniProt P54619+Q13131+Q9Y478, K42A); experiment: Allosteric activation of α1β1γ1 complex, K42A mutant; assay type: biochemical
T8 construct: made in house; host or cells: Escherichia coli
From the text: as §9, §3, §10, §11

[10] = molecular target: T9, AMPK-α1 AA mutant (Homo sapiens, UniProt Q13131, K40A/K42A); experiment: AMPK activity of FLAG-tagged AMPK-α1 K40A/K42A (AA) mutant expressed in HEK293 cells; assay type: cell-based; details: AA mutant FLAG-α1; same concentrations, 1 hr
T9 construct: Plasmid encoding full-length human AMPK-α1; expressed in transfected cells; host or cells: HEK293
From the text: as §3, §4

[11] = molecular target: T10, human α1β1γ1 complex with K40A mutation in α1 (Homo sapiens, UniProt P54619+Q13131+Q9Y478, K40A); experiment: Allosteric activation of α1β1γ1 complex, K40A mutant; assay type: biochemical
T10 construct: made in house; host or cells: Escherichia coli
From the text: as §9, §3, §10, §11

[12] = molecular target: T11, human α1β1γ1 complex with K40A/K42A (AA) mutations in α1 (Homo sapiens, UniProt P54619+Q13131+Q9Y478, K40A/K42A); experiment: Allosteric activation of α1β1γ1 complex, K40A/K42A (AA) mutant; assay type: biochemical
T11 construct: made in house; host or cells: Escherichia coli
From the text: as §9, §3, §10, §11

[13] = molecular target: T12, AMPK-γ2 R531G (RG) mutant (Homo sapiens, UniProt Q9UGJ0, R531G); experiment: AMPK activity in HEK293 cells expressing R531G AMPK-γ2; assay type: cell-based; details: 1 hr
T12 construct: expressed in transfected cells
From the text: as §6, §7, §8

T3 sequence (Q13131 whole entry): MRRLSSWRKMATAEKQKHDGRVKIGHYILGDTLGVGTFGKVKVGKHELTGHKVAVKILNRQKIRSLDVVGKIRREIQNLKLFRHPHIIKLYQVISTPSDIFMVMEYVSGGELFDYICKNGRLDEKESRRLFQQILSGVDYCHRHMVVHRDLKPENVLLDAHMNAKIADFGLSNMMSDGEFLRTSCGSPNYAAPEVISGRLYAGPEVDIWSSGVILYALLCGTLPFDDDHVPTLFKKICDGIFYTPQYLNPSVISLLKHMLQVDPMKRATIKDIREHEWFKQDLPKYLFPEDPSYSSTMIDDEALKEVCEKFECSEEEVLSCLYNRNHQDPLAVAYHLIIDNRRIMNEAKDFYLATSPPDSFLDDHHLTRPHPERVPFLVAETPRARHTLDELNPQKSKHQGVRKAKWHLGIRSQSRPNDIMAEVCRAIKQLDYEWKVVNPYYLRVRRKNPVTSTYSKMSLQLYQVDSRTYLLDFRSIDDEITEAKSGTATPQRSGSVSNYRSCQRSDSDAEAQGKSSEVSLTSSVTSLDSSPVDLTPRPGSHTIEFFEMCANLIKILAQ
T3 sequence (P54619 whole entry partner): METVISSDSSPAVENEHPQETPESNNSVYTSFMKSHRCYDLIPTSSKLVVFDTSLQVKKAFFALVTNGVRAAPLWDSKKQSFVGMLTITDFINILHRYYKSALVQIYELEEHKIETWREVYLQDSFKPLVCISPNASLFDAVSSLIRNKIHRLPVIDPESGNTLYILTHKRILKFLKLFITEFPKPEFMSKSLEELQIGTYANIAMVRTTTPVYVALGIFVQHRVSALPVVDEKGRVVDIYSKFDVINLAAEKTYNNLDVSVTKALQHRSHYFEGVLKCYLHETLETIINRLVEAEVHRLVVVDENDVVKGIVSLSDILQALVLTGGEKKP
T1 sequence (Q13131 whole entry): as the sequence (Q13131 whole entry) above
T1 sequence (P54619 whole entry partner): as the sequence (P54619 whole entry partner) above
T7 sequence (Q13131 whole entry): as the sequence (Q13131 whole entry) above
T7 sequence (Q9Y478 whole entry): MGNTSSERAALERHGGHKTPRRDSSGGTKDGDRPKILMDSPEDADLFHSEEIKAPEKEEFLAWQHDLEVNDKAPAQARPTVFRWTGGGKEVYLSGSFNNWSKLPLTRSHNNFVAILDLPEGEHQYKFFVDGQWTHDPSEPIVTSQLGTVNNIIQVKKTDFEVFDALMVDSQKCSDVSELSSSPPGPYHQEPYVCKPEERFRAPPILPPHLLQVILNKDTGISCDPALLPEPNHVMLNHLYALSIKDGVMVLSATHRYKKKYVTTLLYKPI
T7 sequence (P54619 whole entry): as the sequence (P54619 whole entry partner) above
T10 sequence (Q13131 whole entry K40A): as the sequence (Q13131 whole entry) above, with K40A counted along it
T10 sequence (Q9Y478 whole entry): as the sequence (Q9Y478 whole entry) above
T10 sequence (P54619 whole entry): as the sequence (P54619 whole entry partner) above
T11 sequence (Q13131 whole entry K40A/K42A): as the sequence (Q13131 whole entry) above, with K40A, K42A counted along it
T11 sequence (Q9Y478 whole entry): as the sequence (Q9Y478 whole entry) above
T11 sequence (P54619 whole entry): as the sequence (P54619 whole entry partner) above
T4 sequence (P54646 whole entry Y436F): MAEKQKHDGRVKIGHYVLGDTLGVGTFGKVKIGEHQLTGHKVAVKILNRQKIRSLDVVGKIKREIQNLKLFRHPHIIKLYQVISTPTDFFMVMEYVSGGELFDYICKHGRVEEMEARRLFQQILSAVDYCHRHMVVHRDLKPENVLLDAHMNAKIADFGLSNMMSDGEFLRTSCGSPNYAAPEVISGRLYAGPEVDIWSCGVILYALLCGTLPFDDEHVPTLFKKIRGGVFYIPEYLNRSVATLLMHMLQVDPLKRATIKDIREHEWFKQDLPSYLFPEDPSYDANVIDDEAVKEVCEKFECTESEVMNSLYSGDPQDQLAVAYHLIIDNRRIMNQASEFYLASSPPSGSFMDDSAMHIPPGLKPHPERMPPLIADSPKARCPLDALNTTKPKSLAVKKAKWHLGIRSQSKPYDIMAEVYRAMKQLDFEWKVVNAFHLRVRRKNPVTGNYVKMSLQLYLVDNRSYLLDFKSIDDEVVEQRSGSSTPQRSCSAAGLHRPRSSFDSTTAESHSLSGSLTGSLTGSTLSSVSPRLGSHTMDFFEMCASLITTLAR
T4 sequence (P54619 whole entry partner): as the sequence (P54619 whole entry partner) above
T8 sequence (Q13131 whole entry K42A): as the sequence (Q13131 whole entry) above, with K42A counted along it
T8 sequence (Q9Y478 whole entry): as the sequence (Q9Y478 whole entry) above
T8 sequence (P54619 whole entry): as the sequence (P54619 whole entry partner) above
T12 sequence (Q9UGJ0 whole entry R531G): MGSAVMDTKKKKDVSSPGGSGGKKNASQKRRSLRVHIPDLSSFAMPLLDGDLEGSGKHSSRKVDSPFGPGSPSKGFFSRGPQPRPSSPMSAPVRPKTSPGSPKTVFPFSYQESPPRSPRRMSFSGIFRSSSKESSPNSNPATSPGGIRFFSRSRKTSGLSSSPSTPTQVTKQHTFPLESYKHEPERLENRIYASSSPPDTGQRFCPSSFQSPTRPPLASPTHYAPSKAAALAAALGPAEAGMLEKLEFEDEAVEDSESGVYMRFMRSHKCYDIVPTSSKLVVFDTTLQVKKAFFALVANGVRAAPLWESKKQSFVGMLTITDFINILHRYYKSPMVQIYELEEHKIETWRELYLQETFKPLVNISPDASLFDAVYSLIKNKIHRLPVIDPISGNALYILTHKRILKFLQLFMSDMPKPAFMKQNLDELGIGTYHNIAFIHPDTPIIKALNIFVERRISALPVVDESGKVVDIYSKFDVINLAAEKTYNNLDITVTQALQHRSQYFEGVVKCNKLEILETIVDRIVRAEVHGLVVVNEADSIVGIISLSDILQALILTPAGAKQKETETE
T2 sequence (Q13131 whole entry A167T): as the sequence (Q13131 whole entry) above, with A167T counted along it
T2 sequence (P54619 whole entry partner): as the sequence (P54619 whole entry partner) above
human AMPK-α2 (WT), sequence (P54646 whole entry): as the sequence (P54646 whole entry Y436F) above, with F436Y counted along it
human AMPK-α2 (WT), sequence (P54619 whole entry partner): as the sequence (P54619 whole entry partner) above
T6 sequence (Q9UGJ0 whole entry): as the sequence (Q9UGJ0 whole entry R531G) above, with G531R counted along it
T5 sequence (Q13131 1-312): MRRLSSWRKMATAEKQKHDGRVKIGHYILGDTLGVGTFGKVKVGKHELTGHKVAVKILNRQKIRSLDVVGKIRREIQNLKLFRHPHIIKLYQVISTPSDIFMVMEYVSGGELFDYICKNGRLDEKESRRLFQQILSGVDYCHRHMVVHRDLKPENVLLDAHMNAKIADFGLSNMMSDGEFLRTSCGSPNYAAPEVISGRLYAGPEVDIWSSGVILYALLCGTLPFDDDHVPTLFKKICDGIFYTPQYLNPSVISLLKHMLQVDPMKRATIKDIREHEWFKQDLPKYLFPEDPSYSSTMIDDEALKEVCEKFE
T9 sequence (Q13131 whole entry K40A/K42A): as the sequence (Q13131 whole entry) above, with K40A, K42A counted along it
T9 sequence (P54619 whole entry partner): as the sequence (P54619 whole entry partner) above

Row | SMILES | kinase activity / Thr172 phosphorylation [1] | AMPK activity [2] | AMPK activity [3] | AMPK activation response with Y436F mutation [4] | kinase activity / Thr172 phosphorylation [5] | AMPK activity in anti-FLAG immunoprecipitates [6] | AMPK activity [7] | Activation (maximal allosteric activation) ([8]; not phosphorylated on Thr172, relative to basal activity) | EC50 ([8]; read-out: EC50 (concentration causing half-maximal effect)) | AMPK activity and Thr172 phosphorylation ([3]; WT FLAG-α1, A769662 300 μM, berberine 300 μM, phenformin 10 mM, troglitazone 100 μM, oligomycin 1 μM, SU6656 100 μM) | Activation (maximal allosteric activation) [9] | effect of AA mutation on AMPK activation [10] | Activation (maximal allosteric activation) [11] | EC50 [11] | Activation (maximal allosteric activation) [12] | EC50 [12] | AMPK activity [13]
1 | CNc1ccc2oc(C[C@H]3O[C@@]4(CC[C@H]3C)O[C@H]([C@H](C)C(=O)c3ccc[nH]3)[C@H](C)C[C@H]4C)nc2c1C(=O)O [A23187] | also observed | activated equally well | activated equally well | unaffected by the Y436F mutation | also observed | all activated AMPK | – | – | – | – | – | – | – | – | – | – | –
2 | N#Cc1c(O)c2c(-c3ccc(-c4ccccc4O)cc3)csc2[nH]c1=O [A769662] | not statistically significant | – | did not cause a significant activation | – | – | – | activated AMPK in both | 38 ± 1 fold | 1000 ± 100 nM | activated AMPK and caused Thr172 phosphorylation | 21 ± 0.6 fold | completely prevented | 18 ± 0.7 fold | 4000 ± 700 nM | 1.0 ± 0.03 fold | 1 ± 2 nM | activated AMPK in both
